In the NIST ThermoML archive (doi:10.1021/je8001128):
Numbers after ± are expanded uncertainties. Values belong to the compound of their own block, whether it stands above or below them.

Legend:
[1] = 298.15 K; 101 kPa; Liquid
[2] = wn = mass fraction of the nth substance listed; settings: 298.15 K, 101 kPa, Liquid

SMILES: CCCCn1cc[n+](C)c1.F[B-](F)(F)F [1-butyl-3-methylimidazolium tetrafluoroborate]
- mass density [1]: 1211.05 ± 8.6 kg/m3
- viscosity [1]: 110.3 ± 6.6 mPa·s

SMILES: CCCCn1cc[n+](C)c1.F[B-](F)(F)F [1-butyl-3-methylimidazolium tetrafluoroborate] + CC(C)=O
- mass density ([2]; w1 = 0.1724): 846.15 ± 0.96 kg/m3
- viscosity ([2]; w1 = 0.1724): 0.5 ± 0.1 mPa·s
- mass density ([2]; w1 = 0.3033): 894.39 ± 1.2 kg/m3
- viscosity ([2]; w1 = 0.3033): 0.7 ± 0.1 mPa·s
- mass density ([2]; w1 = 0.495): 970.29 ± 2 kg/m3
- viscosity ([2]; w1 = 0.495): 1.5 ± 0.1 mPa·s
- mass density ([2]; w1 = 0.6276): 1026.98 ± 3 kg/m3
- viscosity ([2]; w1 = 0.6276): 3 ± 0.1 mPa·s
- mass density ([2]; w1 = 0.677): 1048.91 ± 3.5 kg/m3
- viscosity ([2]; w1 = 0.677): 4 ± 0.1 mPa·s
- mass density ([2]; w1 = 0.7197): 1068.29 ± 4 kg/m3
- viscosity ([2]; w1 = 0.7197): 5.2 ± 0.2 mPa·s
- mass density ([2]; w1 = 0.7603): 1086.16 ± 4.4 kg/m3
- viscosity ([2]; w1 = 0.7603): 6.9 ± 0.2 mPa·s
- mass density ([2]; w1 = 0.7933): 1102.46 ± 4.9 kg/m3
- viscosity ([2]; w1 = 0.7933): 9 ± 0.3 mPa·s
- mass density ([2]; w1 = 0.8267): 1118.43 ± 5.4 kg/m3
- viscosity ([2]; w1 = 0.8267): 12 ± 0.3 mPa·s
- mass density ([2]; w1 = 0.8536): 1131.38 ± 5.8 kg/m3
- viscosity ([2]; w1 = 0.8536): 15.1 ± 0.4 mPa·s
- mass density ([2]; w1 = 0.9024): 1155.29 ± 6.6 kg/m3
- viscosity ([2]; w1 = 0.9024): 25.5 ± 0.7 mPa·s
- mass density ([2]; w1 = 0.939): 1174.32 ± 7.2 kg/m3
- viscosity ([2]; w1 = 0.939): 40.1 ± 1.2 mPa·s
- mass density ([2]; w1 = 0.9707): 1193.01 ± 7.9 kg/m3
- viscosity ([2]; w1 = 0.9707): 64.7 ± 2 mPa·s
- mass density ([2]; w1 = 1): 1211.05 ± 8.6 kg/m3
- viscosity ([2]; w1 = 1): 110.3 ± 6.6 mPa·s

SMILES: CCCCn1cc[n+](C)c1.F[B-](F)(F)F [1-butyl-3-methylimidazolium tetrafluoroborate] + CCOC=O
- mass density ([2]; w1 = 1): 1211.05 ± 8.6 kg/m3
- viscosity ([2]; w1 = 1): 110.3 ± 6.6 mPa·s

SMILES: CCCCn1cc[n+](C)c1.F[B-](F)(F)F [1-butyl-3-methylimidazolium tetrafluoroborate] + COC(C)=O
- mass density ([2]; w1 = 1): 1211.05 ± 8.6 kg/m3
- viscosity ([2]; w1 = 1): 110.3 ± 6.6 mPa·s

SMILES: CCCCn1cc[n+](C)c1.F[B-](F)(F)F [1-butyl-3-methylimidazolium tetrafluoroborate] + COC=O
- mass density ([2]; w1 = 1): 1211.05 ± 8.6 kg/m3
- viscosity ([2]; w1 = 1): 110.3 ± 6.6 mPa·s

SMILES: CC(C)=O [acetone]
- mass density [1]: 785.36 ± 0.81 kg/m3
- viscosity [1]: 0.3 ± 0.1 mPa·s

SMILES: CC(C)=O [acetone] + CCCCn1cc[n+](C)c1.F[B-](F)(F)F
- mass density ([2]; w2 = 0): 785.36 ± 0.81 kg/m3
- viscosity ([2]; w2 = 0): 0.3 ± 0.1 mPa·s

- viscosity [1]: 0.4 ± 0.1 mPa·s
SMILES: CCOC=O [ethyl methanoate]

- mass density ([2]; w2 = 0): 928.48 ± 0.52 kg/m3
- viscosity ([2]; w2 = 0): 0.4 ± 0.1 mPa·s
- mass density ([2]; w2 = 0.1384): 961.2 ± 0.72 kg/m3
- viscosity ([2]; w2 = 0.1384): 0.6 ± 0.1 mPa·s
- mass density ([2]; w2 = 0.254): 989.2 ± 1 kg/m3
- viscosity ([2]; w2 = 0.254): 1 ± 0.1 mPa·s
- mass density ([2]; w2 = 0.4306): 1040.81 ± 1.9 kg/m3
- viscosity ([2]; w2 = 0.4306): 2 ± 0.1 mPa·s
- mass density ([2]; w2 = 0.5721): 1082.16 ± 3 kg/m3
- viscosity ([2]; w2 = 0.5721): 3.8 ± 0.1 mPa·s
- mass density ([2]; w2 = 0.6278): 1098.26 ± 3.5 kg/m3
- viscosity ([2]; w2 = 0.6278): 5.1 ± 0.2 mPa·s
- mass density ([2]; w2 = 0.6729): 1111.27 ± 4 kg/m3
- viscosity ([2]; w2 = 0.6729): 6.5 ± 0.2 mPa·s
- mass density ([2]; w2 = 0.7159): 1123.69 ± 4.4 kg/m3
- viscosity ([2]; w2 = 0.7159): 8.5 ± 0.2 mPa·s
- mass density ([2]; w2 = 0.751): 1133.73 ± 4.8 kg/m3
- viscosity ([2]; w2 = 0.751): 10.6 ± 0.3 mPa·s
- mass density ([2]; w2 = 0.7847): 1143.34 ± 5.2 kg/m3
- viscosity ([2]; w2 = 0.7847): 13.3 ± 0.4 mPa·s
- mass density ([2]; w2 = 0.8199): 1153.32 ± 5.7 kg/m3
- viscosity ([2]; w2 = 0.8199): 16.9 ± 0.5 mPa·s
- mass density ([2]; w2 = 0.8756): 1169.16 ± 6.5 kg/m3
- viscosity ([2]; w2 = 0.8756): 26.6 ± 0.7 mPa·s
- mass density ([2]; w2 = 0.9231): 1183.78 ± 7.2 kg/m3
- viscosity ([2]; w2 = 0.9231): 43.7 ± 1.3 mPa·s
- mass density ([2]; w2 = 0.9647): 1198.3 ± 7.9 kg/m3
- viscosity ([2]; w2 = 0.9647): 69 ± 2.3 mPa·s
SMILES: CCOC=O [ethyl methanoate] + CCCCn1cc[n+](C)c1.F[B-](F)(F)F

- viscosity [1]: 0.4 ± 0.1 mPa·s
SMILES: COC(C)=O [methyl ethanoate]

- mass density ([2]; w2 = 0): 915.97 ± 0.55 kg/m3
- viscosity ([2]; w2 = 0): 0.4 ± 0.1 mPa·s
- mass density ([2]; w2 = 0.1386): 964.5 ± 0.72 kg/m3
- viscosity ([2]; w2 = 0.1386): 0.6 ± 0.1 mPa·s
- mass density ([2]; w2 = 0.254): 996.04 ± 1 kg/m3
- viscosity ([2]; w2 = 0.254): 0.9 ± 0.1 mPa·s
- mass density ([2]; w2 = 0.4326): 1045.98 ± 2 kg/m3
- viscosity ([2]; w2 = 0.4326): 2 ± 0.1 mPa·s
- mass density ([2]; w2 = 0.5703): 1084.58 ± 3 kg/m3
- viscosity ([2]; w2 = 0.5703): 3.6 ± 0.1 mPa·s
- mass density ([2]; w2 = 0.622): 1098.9 ± 3.5 kg/m3
- viscosity ([2]; w2 = 0.622): 4.7 ± 0.1 mPa·s
- mass density ([2]; w2 = 0.6699): 1112.24 ± 4 kg/m3
- viscosity ([2]; w2 = 0.6699): 6.2 ± 0.2 mPa·s
- mass density ([2]; w2 = 0.7149): 1124.8 ± 4.4 kg/m3
- viscosity ([2]; w2 = 0.7149): 8.2 ± 0.2 mPa·s
- mass density ([2]; w2 = 0.7526): 1136.01 ± 4.9 kg/m3
- viscosity ([2]; w2 = 0.7526): 10.2 ± 0.3 mPa·s
- mass density ([2]; w2 = 0.7875): 1144.94 ± 5.3 kg/m3
- viscosity ([2]; w2 = 0.7875): 13.1 ± 0.4 mPa·s
- mass density ([2]; w2 = 0.8204): 1153.95 ± 5.7 kg/m3
- viscosity ([2]; w2 = 0.8204): 16.3 ± 0.5 mPa·s
- mass density ([2]; w2 = 0.8766): 1169.55 ± 6.5 kg/m3
- viscosity ([2]; w2 = 0.8766): 25.8 ± 0.7 mPa·s
- mass density ([2]; w2 = 0.9243): 1182.88 ± 7.2 kg/m3
- viscosity ([2]; w2 = 0.9243): 40.8 ± 1.2 mPa·s
- mass density ([2]; w2 = 0.9648): 1197.7 ± 7.9 kg/m3
- viscosity ([2]; w2 = 0.9648): 63.7 ± 1.9 mPa·s
SMILES: COC(C)=O [methyl ethanoate] + CCCCn1cc[n+](C)c1.F[B-](F)(F)F

- mass density [1]: 964.78 ± 0.45 kg/m3
- viscosity [1]: 0.3 ± 0.1 mPa·s
SMILES: COC=O [methyl methanoate]

- mass density ([2]; w2 = 0): 964.78 ± 0.45 kg/m3
- viscosity ([2]; w2 = 0): 0.3 ± 0.1 mPa·s
- mass density ([2]; w2 = 0.1653): 1011.72 ± 0.78 kg/m3
- viscosity ([2]; w2 = 0.1653): 0.5 ± 0.1 mPa·s
- mass density ([2]; w2 = 0.2974): 1045.55 ± 1.4 kg/m3
- viscosity ([2]; w2 = 0.2974): 0.9 ± 0.1 mPa·s
- mass density ([2]; w2 = 0.4895): 1091.4 ± 2.5 kg/m3
- viscosity ([2]; w2 = 0.4895): 1.9 ± 0.1 mPa·s
- mass density ([2]; w2 = 0.6165): 1121.47 ± 3.6 kg/m3
- viscosity ([2]; w2 = 0.6165): 3.5 ± 0.1 mPa·s
- mass density ([2]; w2 = 0.6592): 1131.2 ± 4 kg/m3
- viscosity ([2]; w2 = 0.6592): 4.4 ± 0.1 mPa·s
- mass density ([2]; w2 = 0.7145): 1143.64 ± 4.6 kg/m3
- viscosity ([2]; w2 = 0.7145): 6.3 ± 0.2 mPa·s
- mass density ([2]; w2 = 0.7547): 1152.73 ± 5.1 kg/m3
- viscosity ([2]; w2 = 0.7547): 8.2 ± 0.2 mPa·s
- mass density ([2]; w2 = 0.7899): 1160.43 ± 5.5 kg/m3
- viscosity ([2]; w2 = 0.7899): 10.6 ± 0.3 mPa·s
- mass density ([2]; w2 = 0.8204): 1167.19 ± 5.9 kg/m3
- viscosity ([2]; w2 = 0.8204): 13.7 ± 0.4 mPa·s
- mass density ([2]; w2 = 0.8492): 1173.37 ± 6.2 kg/m3
- viscosity ([2]; w2 = 0.8492): 17.12 ± 0.48 mPa·s
- mass density ([2]; w2 = 0.8977): 1182.34 ± 6.9 kg/m3
- viscosity ([2]; w2 = 0.8977): 28.3 ± 0.8 mPa·s
- mass density ([2]; w2 = 0.9376): 1192.78 ± 7.5 kg/m3
- viscosity ([2]; w2 = 0.9376): 44.2 ± 1.3 mPa·s
- mass density ([2]; w2 = 0.9711): 1202.31 ± 8 kg/m3
- viscosity ([2]; w2 = 0.9711): 68.4 ± 2.2 mPa·s
SMILES: COC=O [methyl methanoate] + CCCCn1cc[n+](C)c1.F[B-](F)(F)F
